{
  "source": "patent US20240384350A1",
  "about": "“METHODS OF TREATING CANCER WITH KINASE INHIBITORS” (BOARD OF REGENTS, THE UNIVERSITY OF TEXAS SYSTEM, priority 2021, published 2024)",
  "key": {"[1]": {"system": "NSCLC tumors expressing EGFR G719S", "assay": "PDX tumor growth, EGFR G719S model", "assay_type": "in vivo, NSG mice", "conditions": "mice harboring PDXs with mutations", "experimental": "Dot plot of mutant/WT IC50 values of Ba/F3 cells expressing PACC mutations and treated with indicated classes of EGFR TKIs. […] Bars are representative of average mutant/WT IC50 values±SEM for each class of EGFR TKI and all PACC cell lines. p-values were determined by ANOVA analysis with unequal SD as determined by Brown-Forsythe test to determined differences in SD. Holm-Sidak's multiple comparisons test was used to determine differences between groups. […] Tumors were measured three times per week and symbols are average of tumor volumes±SEM. Mice were randomized into six groups. Mice received drug 5 days per week, and mice were euthanized at day 28 to harvest tumors. […] Heat map with unsupervised hierarchical clustering of log (Mutant/WT) ratios from Ba/F3 cells expressing indicated mutations after 72 hours of indicated drug treatment. Squares are representative of the average of n=3 replicates. […] Bars are representative of average mutant/WT IC50 values±SEM for each class of EGFR TKI and indicated cell lines. p-values were determined by ANOVA analysis with unequal SD as determined by Brown-Forsythe test to determined differences in SD. […]\nDot plot of percent change in tumor volume on day 28 of tumors described in FIG. 3C. […] Statistical differences were determined by ordinary one-way ANOVA with post-hoc Tukey's multiple comparisons test to determined differences between groups. […]"}, "[2]": {"system": "classical EGFR mutant NSCLC", "conditions": "Phase III; treatment-naive patients; cited from earlier work"}, "[3]": {"system": "NSCLC harboring atypical EGFR mutations", "conditions": "Phase II KCSG-LU15-09; treatment-naive patients harboring atypical EGFR mutations; cited from earlier work"}},
  "data": [
    {"smiles": "C=CC(=O)Nc1cc(Nc2nccc(-c3cn(C)c4ccccc34)n2)c(OC)cc1N(C)CCN(C)C", "note": "[Osimertinib]", "values": [
      {"measurement": "tumor sensitivity in vivo", "setting": "[1]", "value": "resistant"},
      {"measurement": "median overall survival (mOS)", "setting": "[2]", "value": 38.6, "unit": "months"},
      {"measurement": "median progression free survival (mPFS)", "setting": "[2]", "value": 18.9, "unit": "months"},
      {"measurement": "objective response rate (ORR)", "setting": "[2]", "value": 80, "unit": "%"},
      {"measurement": "ORR", "setting": "[3]", "value": 50, "unit": "%"},
      {"measurement": "mPFS", "setting": "[3]", "value": 8.2, "unit": "months"}
    ]}
  ]
}
